Experiments:
[1] = tested on: SUDHL-4 cells (B-cell lymphoma); experiment: Proliferation inhibition, SUDHL-4 (cck-8); assay type: cell-based; conditions: Homo sapiens, SU-DHL-4; 96 h incubation
Source text: (§1) Calculating the value of IC50 as per the formula: Y=background data+(top data−background data)/(1+10^((Log IC50−X)*rate of curve)). Where, Y refers to the inhibition ratio (%) and X refers to the compound concentration.

HDAC3 = target: T1, HDAC3 (Homo sapiens, UniProt O15379); experiment: HDAC3 enzyme inhibition (Lys-Ac-AMC); assay type: biochemical; conditions: Table 4, graded
T1 construct: purchased BPS Bioscience 50003
T1 sequence (O15379 whole entry, species assumed): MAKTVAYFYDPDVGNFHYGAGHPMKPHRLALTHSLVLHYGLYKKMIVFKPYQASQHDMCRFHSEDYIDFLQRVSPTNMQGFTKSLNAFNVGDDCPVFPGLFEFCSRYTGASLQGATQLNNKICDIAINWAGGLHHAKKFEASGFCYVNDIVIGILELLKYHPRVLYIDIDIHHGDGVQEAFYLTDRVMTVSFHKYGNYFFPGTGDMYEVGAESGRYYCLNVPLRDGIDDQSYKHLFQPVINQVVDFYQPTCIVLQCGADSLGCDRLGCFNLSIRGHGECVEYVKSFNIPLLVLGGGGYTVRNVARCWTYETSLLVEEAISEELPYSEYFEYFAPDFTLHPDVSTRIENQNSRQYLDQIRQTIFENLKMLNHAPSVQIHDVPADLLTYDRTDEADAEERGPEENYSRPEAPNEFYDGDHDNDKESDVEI
T1 sequence (Q9Y618 395-489 partner limits assumed, species assumed): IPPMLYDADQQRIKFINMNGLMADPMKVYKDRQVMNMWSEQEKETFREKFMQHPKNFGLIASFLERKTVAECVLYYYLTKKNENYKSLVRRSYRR
Description: (§2) Determining the inhibition capability of HDAC through the substrate method of fluorophore coupled acetylized peptide fragment (Lys-Ac-AMC). HDAC2-11 proteins of subtypes are purchased from BPS Bioscience Company with the Art. […] The reaction buffer system is a modified Tris buffer (pH7.0). The small molecule compounds are prepared and dissolved with 100% DMSO. […] Adding the compound into the reaction wells of the 384 well plate at the designed concentration, then adding 15 μL HDAC enzyme solution into the reaction wells (adding 15 μL blank buffer into the control well 0) for incubation under ambient temperature for 15 min; then adding 10 μL substrate solution to start reaction.
(§3) Analyzing the result data with the software GraphPad Prism and calculating the value of IC50 as per the formula: Y=background data+(top data−background data)/(1+10^((Log IC50−X)*rate of curve)). Where, Y refers to the inhibition ratio (%) and X refers to the compound concentration.

[2] = tested on: HBL-1 cells (B-cell lymphoma); experiment: Proliferation inhibition, HBL-1 (cck-8); assay type: cell-based; conditions: Homo sapiens, HBL1; 96 h incubation
Source text: as §1

[3] = tested on: MM1S cells (multiple myeloma); experiment: Proliferation inhibition, MM1S (cck-8); assay type: cell-based; conditions: Homo sapiens, MM1.S; 96 h incubation
Source text: as §1

[4] = tested on: OCI-LY1 cells (B-cell lymphoma); experiment: Proliferation inhibition, OCI-LY1 (cck-8); assay type: cell-based; conditions: Homo sapiens, 96 h incubation
Source text: as §1

HDAC6 = target: T2, HDAC6 (Homo sapiens, UniProt Q9UBN7); experiment: HDAC6 enzyme inhibition (Lys-Ac-AMC); assay type: biochemical; conditions: Table 4, graded
T2 construct: purchased BPS Bioscience 50006
T2 sequence (Q9UBN7 1-1215): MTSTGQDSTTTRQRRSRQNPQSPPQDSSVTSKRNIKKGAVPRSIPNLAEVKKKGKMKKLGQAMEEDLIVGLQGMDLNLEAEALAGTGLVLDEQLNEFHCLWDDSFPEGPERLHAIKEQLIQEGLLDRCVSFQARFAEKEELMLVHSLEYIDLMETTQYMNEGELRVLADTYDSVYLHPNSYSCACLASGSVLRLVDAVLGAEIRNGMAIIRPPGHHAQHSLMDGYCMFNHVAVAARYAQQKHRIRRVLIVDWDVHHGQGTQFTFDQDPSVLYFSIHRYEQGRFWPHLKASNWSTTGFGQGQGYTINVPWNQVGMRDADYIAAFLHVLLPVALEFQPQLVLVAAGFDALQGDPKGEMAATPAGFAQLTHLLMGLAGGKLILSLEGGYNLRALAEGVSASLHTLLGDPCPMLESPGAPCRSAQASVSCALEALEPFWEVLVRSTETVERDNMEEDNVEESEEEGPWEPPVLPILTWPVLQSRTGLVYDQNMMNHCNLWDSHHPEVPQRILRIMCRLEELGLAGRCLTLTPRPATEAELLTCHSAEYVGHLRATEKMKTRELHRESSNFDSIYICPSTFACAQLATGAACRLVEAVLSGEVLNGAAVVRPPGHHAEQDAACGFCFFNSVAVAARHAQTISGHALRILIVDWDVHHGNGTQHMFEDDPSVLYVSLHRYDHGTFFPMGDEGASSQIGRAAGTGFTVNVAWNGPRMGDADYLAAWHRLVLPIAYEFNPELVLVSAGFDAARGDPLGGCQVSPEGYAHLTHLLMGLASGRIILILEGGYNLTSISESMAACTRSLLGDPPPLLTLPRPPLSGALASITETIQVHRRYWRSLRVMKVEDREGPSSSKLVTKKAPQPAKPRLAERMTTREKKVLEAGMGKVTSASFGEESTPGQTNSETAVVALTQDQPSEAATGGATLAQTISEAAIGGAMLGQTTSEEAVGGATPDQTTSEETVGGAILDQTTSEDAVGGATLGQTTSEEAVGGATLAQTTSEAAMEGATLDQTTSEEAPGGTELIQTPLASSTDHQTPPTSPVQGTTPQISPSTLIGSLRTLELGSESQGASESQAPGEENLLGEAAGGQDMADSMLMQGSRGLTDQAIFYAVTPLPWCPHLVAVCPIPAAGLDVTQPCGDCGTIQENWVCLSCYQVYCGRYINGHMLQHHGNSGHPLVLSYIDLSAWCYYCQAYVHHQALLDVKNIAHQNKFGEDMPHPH
Description: as §2, §3

HDAC7 = target: T3, HDAC7 (Homo sapiens, UniProt Q8WUI4); experiment: HDAC7 enzyme inhibition (Lys-Ac-AMC); assay type: biochemical; conditions: Table 4, graded
T3 construct: purchased BPS Bioscience 50007
T3 sequence (Q8WUI4 518-952 limits assumed): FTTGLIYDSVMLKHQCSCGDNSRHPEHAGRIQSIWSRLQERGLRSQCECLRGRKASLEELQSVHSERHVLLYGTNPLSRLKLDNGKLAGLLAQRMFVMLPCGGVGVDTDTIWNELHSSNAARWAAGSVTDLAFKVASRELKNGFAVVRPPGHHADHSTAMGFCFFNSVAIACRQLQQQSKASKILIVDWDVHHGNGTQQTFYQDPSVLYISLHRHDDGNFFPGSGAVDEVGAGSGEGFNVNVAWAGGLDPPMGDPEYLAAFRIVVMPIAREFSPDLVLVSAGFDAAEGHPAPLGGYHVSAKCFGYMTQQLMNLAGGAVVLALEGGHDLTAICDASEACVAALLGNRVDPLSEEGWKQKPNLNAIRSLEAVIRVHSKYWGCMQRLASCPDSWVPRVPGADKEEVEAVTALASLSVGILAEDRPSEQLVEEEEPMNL
Description: as §2, §3

HDAC11 = target: T4, HDAC11 (Homo sapiens, UniProt Q96DB2); experiment: HDAC11 enzyme inhibition (Lys-Ac-AMC); assay type: biochemical; conditions: Table 4, graded
T4 construct: purchased BPS Bioscience 50011
T4 sequence (Q96DB2 1-347): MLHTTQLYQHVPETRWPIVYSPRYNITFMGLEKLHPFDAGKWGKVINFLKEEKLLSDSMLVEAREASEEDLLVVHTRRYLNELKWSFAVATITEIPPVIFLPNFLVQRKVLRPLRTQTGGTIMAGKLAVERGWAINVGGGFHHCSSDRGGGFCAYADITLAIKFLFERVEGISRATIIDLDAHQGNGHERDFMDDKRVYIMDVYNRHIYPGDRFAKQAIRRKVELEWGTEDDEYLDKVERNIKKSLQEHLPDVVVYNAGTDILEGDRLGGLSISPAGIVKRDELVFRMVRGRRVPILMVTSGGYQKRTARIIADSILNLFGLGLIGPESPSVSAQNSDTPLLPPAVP
Description: as §2, §3

Structure (SMILES) | IC50 [1] | IC50 (HDAC3) | IC50 [2] | IC50 [3] | IC50 [4] | IC50 (HDAC6) | IC50 (HDAC7) | IC50 (HDAC11)
COc1ccc(-c2nc(N3CCOCC3)c3nc(CN(C)c4ncc(C(=O)NO)cn4)n(C)c3n2)cn1 [CLJ-1, 2-(((2-(6-methoxypyridine-3-yl)-9-methyl-6-morpholine-9H-purine-8-yl))methyl(methyl)amino)-N-hydroxyl pyrimidine-5-formamide] | 0.001 to 0.01 µM | 0.001 to 0.1 µM | 0.001 to 0.01 µM | 0.0001 to 0.001 µM | 0.01 to 0.1 µM | 0.001 to 0.1 µM | 1 to 10 µM | 1 to 10 µM
CN(Cc1nc2c(N3CCOCC3)nc(-c3cnc(N)nc3)nc2n1C)c1ncc(C(=O)NO)cn1 [CLJ-11, 2-(((2-(2-aminopyrimidine-5-yl)-9-methyl-6-morpholine-9H-purine-8-yl))methyl(methyl)amino)-N-hydroxyl pyrimidine-5-formamide] | 0.01 to 0.1 µM | 0.001 to 0.1 µM | 0.01 to 0.1 µM | 0.001 to 0.01 µM | 0.1 to 1 µM | 0.001 to 0.1 µM | 0.1 to 1 µM | 1 to 10 µM
COc1ccc(-c2nc(N3CCOCC3)c3nc(CN(C)c4ncc(C(=O)NO)cn4)n(C)c3n2)cc1 [CLJ-29, 2-(((2-(4-methoxyphenyl)-9-methyl-6-morpholine-9H-purine-8-yl))methyl(methyl)amino)-N-hydroxyl pyrimidine-5-formamide] | 0.0001 to 0.001 µM | 0.001 to 0.1 µM | 0.001 to 0.01 µM | 0.0001 to 0.001 µM | 0.001 to 0.01 µM | 0.001 to 0.1 µM | 1 to 10 µM | 1 to 10 µM
CN(Cc1nc2c(N3CCOCC3)nc(-c3ccc(N)cc3)nc2n1C)c1ncc(C(=O)NO)cn1 [CLJ-44] | 0.001 to 0.01 µM | 0.001 to 0.1 µM | 0.001 to 0.01 µM | 0.001 to 0.01 µM | 0.01 to 0.1 µM | 0.001 to 0.1 µM | 1 to 10 µM | 1 to 10 µM
Cc1[nH]c2ccccc2c1CCNCc1ccc(/C=C/C(=O)NO)cc1 [LBH589, panobinostat, reference compound] | 0.001 to 0.01 µM | – | 0.001 to 0.01 µM | 0.001 to 0.01 µM | 0.01 to 0.1 µM | – | – | –

Reference: US10227347B2, “Purinyl-N-hydroxyl pyrimidine formamide derivative, preparation methods and uses thereof” (Guizhou Bailing Group Pharmaceutical CO., LTD., priority 2015, dated 2019)
